Results from patent US20220280602A1, “ANTICANCER AGENT AND METHOD FOR PREPARATION OF POROUS SILICA PARTICLE” (LEMONEX INC., priority 2019, published 2022).

Tests used:
MCF-7 cells = assay: Assessment of cytotoxicity by MTT assay; assay type: cell-based; conditions: 1 day treatment
Procedure: MCF-7 cells were seeded at 10,000 cells/well in 96-well cell culture plates. After 1 day, different concentrations of each particle (4 to 500 μg/mL) were treated with a serum-containing medium in each well for 1 day. Thereafter, the culture was performed for 4 hours while replacing the above medium with a serum-free medium containing 10 μl of MTT assay kit, and the supernatant was aspirated. DMSO was added to each well to dissolve formazan, and reacted for 1 hour. The absorbance was measured at a wavelength of 570 nm, and the cell viability was calculated as a relative value to that of the untreated group.

[1] = test system: MCF-7 cells expressing LC3-GFP; assay: Measurement of the number of GFP-LC3 puncta (autophagy induction); assay type: cell-based; conditions: MCF-7 expressing LC3-GFP, 6 hours, serum-free medium
Procedure: Using lipofectamine 2000, LC3-GFP plasmid was transfected into MCF-7 cells. Transfected MCF-7 was selected with 800 μg/mL of G418 for 3 months. […] 100,000 MCF-7 cells expressing LC3-GFP were seeded.
40 μg of dye-labeled particles and 4 μg of bec1 peptide were mixed, and the cells were treated for 6 hours in a serum-free medium. Cells were fixed with 4% PFA, and nuclei were stained with DAPI. Images were obtained with a Delta-vision microscope, and the number of GFP-LC3 puncta was measured in 100 cells for each group.

## CGGTNVFNATFHIWHSGQFGT (listed as Homo sapiens) [Bec1 peptide]
MCF-7 cells
  Cell viability compared to non-treated group: not significantly varied
[1]
  Amount of GFP puncta: very little amount
